Usually EC50 stands for the concentration giving half of the maximal effect.

Where two headings read alike, the source gives them in different places.

The source of these data is paper PMC5923478 (Viruses, 2018).

Data set [1] is described as follows: in vitro.
Data set [2] relates to ZIKV surface E antigen expression. It counts as cell-based, Zika virus.
In data set [3] the test system is Crimean-Congo hemorrhagic fever virus. The note with it: cited from earlier work.
For a further data set, the system named is Chikungunya virus. The following applies: Vero cells or primary human fibroblasts; cited from earlier work.
The nature of data set [4]: in vitro. The note with it: African green monkey.
For a further data set, the system named is HCV. Further details: method as in ref 11 = [11]. The note with it: Huh 7.5.1 cells, 15 µM, 24 h to 48 h; cited from earlier work.
The next data set deals with Vero cells. The note with it: African green monkey; human.
The test system of data set [5] is TBEV.
The subject of data set [6] is WNV. The data set can be described thus: microbe, parasite or virus in culture. The note with it: West Nile virus, Vero, 48 h.
Data set [7] concerns ZIKV.
The subject of data set [8] is WNV viral surface E antigen expression. It counts as cell-based, West Nile virus.
A further data set has as its system ZIKV, WNV and TBEV. Put plainly: organism not typed. It counts as cell-based.
The subject of data set [9] is TBEV. Put plainly: microbe, parasite or virus in culture. The note with it: Tick-borne encephalitis virus, Vero, 48 h.
Data set [10] can be described thus: in vitro. The note with it: pig.
Data set [11] concerns ZIKV. The data set can be described thus: microbe, parasite or virus in culture. The note with it: Zika virus, Vero, 48 h.
The subject of data set [12] is WNV.
In data set [13] the test system is ZIKV. Set-up: method as in ref 24 = [24]. The note with it: depending on the cultivated cells used; cited from earlier work.

As for `CCOC(=O)c1c(CSc2ccccc2)n(C)c2cc(Br)c(O)c(CN(C)C)c12.Cl.O` [arbidol, ethyl-6-bromo-4-[(dimethylamino)methyl]-5-hydroxy-1-methyl-2-[(phenylthio)methyl]-indole-3-carboxylate hydrochloride monohydrate], the CC50 in “in vitro [1]” was 18.7 to 89.7 µM; in “in vitro [1]” (pig (PS), human (UKF-NB-4, HBCA)), 24.8 to 47 µM; in the data set “in vitro [4]”, 89.72 ± 0.19 µM; in the data set “in vitro [10]”, 46.8 ± 1.65 µM. Besides, in data set [2], the “ZIKV surface E antigen expression (immunofluorescence staining)” value is listed as “dose-dependent inhibition”. Also, the EC50 is 2.8 µg/mL in [3]; below 10 µg/mL in the data set on Chikungunya virus; 18.8 ± 0.21 µM with WNV [6]; 10.6 ± 0.74 µM in the data set on ZIKV [7]; 10.6 to 19.2 µM with ZIKV, WNV and TBEV (Vero, read-out: EC50 values, range over ZIKV, WNV and TBEV); 18.67 ± 0.15 µM in the data set with TBEV [9]. The EC50 in the data set with ZIKV [11] worked out at 12.1 ± 0.77 µM; in the data set with WNV [12], 19.2 ± 0.29 µM. Also, in the data set with HCV, the “inhibition of HCV replication” value was “up to 10^3 fold”. Besides, in the data set on Vero cells, the “cytotoxicity in Vero cells lower than in Huh-7 cells” value is on record as “about 5 times”. Besides, the “SI (CC50/EC50)” value in the data set on TBEV [5] is on record as 4.81. For the same compound, the “TBEV viral titer reduction compared with non-treated cells” value with TBEV [5] is 10^3 fold. For the same compound, in the data set on TBEV [5], the “inhibition of TBEV replication” value is on record as “incomplete”. Moreover, in the data set with ZIKV [7], the ZIKV replication entry is on record as “not inhibited”. In addition, the ZIKV viral replication entry in the data set with ZIKV [7] is recorded as “inhibited completely”. The “reduction in ZIKV titer compared to mock-treated cells” value with ZIKV [7] is “about 10^4 fold”. Besides, the “WNV viral surface E antigen expression” value in data set [8] is “dose-dependent inhibition”. Also, in the data set with ZIKV, WNV and TBEV, the “antiviral effects in virus infected cells” value is “no antiviral effects”. Besides, in the data set with ZIKV, WNV and TBEV, the “viral titer in growth curves” value was “rapid reduction of viral titer”. In addition, in the data set with WNV [12], the “antiviral effects against WNV” value is “little or no antiviral effects”.

On to `CC(C)OC(=O)[C@H](C)N[P@](=O)(OC[C@H]1O[C@@H](n2ccc(=O)[nH]c2=O)[C@](C)(F)[C@@H]1O)Oc1ccccc1` [sofosbuvir], for which the “activity against ZIKV infection” value in the data set with ZIKV [13] is “differentially active”.
